The source of these data is patent publication EP3597653A1, “CYCLIC INHIBITORS OF HEPATITIS B VIRUS” (IRBM S.P.A., priority 2018, dated 2020).

A value given as a limit tells only on which side of the number the result lay.

One assay relates to HBV. Description: HBV inhibition assay in HepAD38 cells (extracellular HBV DNA by direct qPCR). Particulars: Hepatitis B virus, 8-point dose-response curve, 96 hours, read-out: HBV inh EC50. The format is cell-based. In a few lines:
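HepAD38 cells (HepG2, tetracycline-off HBV) induced in tetracycline-free medium, treated 96 h at 37 °C with compound, 0.5% DMSO. Extracellular HBV DNA quantified by direct SYBR qPCR of lysed supernatant, as % of untreated; EC50 from 8-point 1:2 curves; cytotoxicity by CellTiter-Blue.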
As to `Cc1cc(C(=O)Nc2cc(F)c(F)c(F)c2)cc2c1NCNS2(=O)=O` [Example E88, 5-methyl-N-(3,4,5-trifluorophenyl)-3,4-dihydro-2H-benzo[e][1,2,4]thiadiazine-7-carboxamide 1,1-dioxide], the EC50 was over 1000 nM.
On to `O=C(Nc1cc(F)c(F)c(F)c1)c1ccc2c(c1)S(=O)(=O)NCCN2` [Example E94, N-(3,4,5-trifluorophenyl)-2,3,4,5-tetrahydrobenzo[f][1,2,5]thiadiazepine-8-carboxamide 1,1-dioxide], for which the EC50 was over 1000 nM.

Staying with this assay, now noted: Hepatitis B virus, compound at 0.1 µM, 96 hours, relative to non-treated reference, read-out: Anti HBV Activity (conc µM).
As for `O=C(Nc1cc(F)c(F)c(F)c1)c1ccc2c(c1)S(=O)(=O)N([C@H]1CCNC1)C(=O)N2` [Example E84, (S)-3-oxo-2-(pyrrolidin-3-yl)-N-(3,4,5-trifluorophenyl)-3,4-dihydro-2H-benzo[e][1,2,4]thiadiazine-7-carboxamide 1,1-dioxide], the inhibition at 0.1 µM was under 50%.
Still for that read-out and setting: then `CN1CC[C@H](N2C(=O)Nc3ccc(C(=O)Nc4cc(F)c(F)c(F)c4)cc3S2(=O)=O)C1` [Example E85, (S)-2-(1-methylpyrrolidin-3-yl)-3-oxo-N-(3,4,5-trifluorophenyl)-3,4-dihydro-2H-benzo[e][1,2,4]thiadiazine-7-carboxamide 1,1-dioxide], with under 50%.

Staying with this assay, now noted: Hepatitis B virus, compound at 0.5 µM, 96 hours, relative to non-treated reference, read-out: Anti HBV Activity (conc µM).
Take `C[C@@H](N1C(=O)Nc2ccc(C(=O)Nc3cc(F)c(F)c(F)c3)cc2S1(=O)=O)C(F)(F)F` [Example E77, (R)-3-oxo-N-(3,4,5-trifluorophenyl)-2-(1,1,1-trifluoropropan-2-yl)-3,4-dihydro-2H-benzo[e][1,2,4]thiadiazine-7-carboxamide 1,1-dioxide]: the inhibition at 0.5 µM is under 50%.
Still for that read-out and setting: the result for `C[C@H](N1C(=O)Nc2ccc(C(=O)Nc3cc(F)c(F)c(F)c3)cc2S1(=O)=O)C(F)(F)F` [Example E78, (S)-3-oxo-N-(3,4,5-trifluorophenyl)-2-(1,1,1-trifluoropropan-2-yl)-3,4-dihydro-2H-benzo[e][1,2,4]thiadiazine-7-carboxamide 1,1-dioxide] reads over 50%; that for `O=C(Nc1cc(F)c(F)c(F)c1)c1ccc2c(c1)S(=O)(=O)N(C1COC1)C(=O)N2` [Example E82, 2-(oxetan-3-yl)-3-oxo-N-(3,4,5-trifluorophenyl)-3,4-dihydro-2H-benzo[e][1,2,4]thiadiazine-7-carboxamide 1,1-dioxide], over 50%.
Take `CC(C)(C)OC(=O)N1CC[C@H](N2C(=O)Nc3ccc(C(=O)Nc4cc(F)c(F)c(F)c4)cc3S2(=O)=O)C1` [Example E83, tert-butyl (S)-3-(1,1-dioxido-3-oxo-7-((3,4,5-trifluorophenyl)carbamoyl)-3,4-dihydro-2H-benzo[e][1,2,4]thiadiazin-2-yl)pyrrolidine-1-carboxylate]: the inhibition at 0.5 µM is under 50%.
On to `O=C(Nc1cc(F)c(F)c(F)c1)c1ccc2c(c1)S(=O)(=O)N(C1CC(O)C1)C(=O)N2` (stereo not drawn) [Example E86, 2-(3-hydroxycyclobutyl)-3-oxo-N-(3,4,5-trifluorophenyl)-3,4-dihydro-2H-benzo[e][1,2,4]thiadiazine-7-carboxamide 1,1-dioxide], for which the inhibition at 0.5 µM is over 50%.
Same read-out and setting: then `O=C(Nc1cc(F)c(F)c(F)c1)c1ccc2c(c1)S(=O)(=O)N([C@H]1CC[C@@H](O)CC1)C(=O)N2` [Example E87, cis-2-(4-hydroxycyclohexyl)-3-oxo-N-(3,4,5-trifluorophenyl)-3,4-dihydro-2H-benzo[e][1,2,4]thiadiazine-7-carboxamide 1,1-dioxide], with over 50%; and `O=C(Nc1ccc(Cl)nc1)c1ccc2c(c1)S(=O)(=O)NCN2` [Example E92, N-(6-chloropyridin-3-yl)-3,4-dihydro-2H-benzo[e][1,2,4]thiadiazine-7-carboxamide 1,1-dioxide], with under 50%.
Same read-out and setting: then `O=C(Nc1cc(F)c(F)c(F)c1)c1cnc2c(c1)S(=O)(=O)NCN2` [Example E93, N-(3,4,5-trifluorophenyl)-3,4-dihydro-2H-pyrido[2,3-e][1,2,4]thiadiazine-7-carboxamide 1,1-dioxide], with under 50%.
In the case of `O=C(Nc1cc(F)c(F)c(F)c1)c1ccc2c(c1)S(=O)(=O)N[C@H]1CCC[C@@H]1N2` [Example E95, (3aS, 10aS)-N-(3,4,5-trifluorophenyl)-2,3,3a,4,10,10a-hexahydro-1H-benzo[f]cyclopenta[c][1,2,5]thiadiazepine-7-carboxamide 5,5-dioxide], the inhibition at 0.5 µM is under 50%.

Staying with this assay, now noted: Hepatitis B virus, compound at 1 µM, 96 hours, relative to non-treated reference, read-out: Anti HBV Activity (conc µM).
As to `CN1C=NS(=O)(=O)c2cc(C(=O)Nc3cc(F)c(F)c(F)c3)c(F)cc21` [Example E73, 6-fluoro-4-methyl-N-(3,4,5-trifluorophenyl)-4H-benzo[e][1,2,4]thiadiazine-7-carboxamide 1,1-dioxide], the inhibition at 1 µM was under 50%.
The same measure, in the same setting: then `O=C1Nc2ccc(C(=O)Nc3ccc(F)c(F)c3)cc2S(=O)(=O)N1` [Example E74, N-(3,4-difluorophenyl)-3-oxo-3,4-dihydro-2H-benzo[e][1,2,4]thiadiazine-7-carboxamide 1,1-dioxide], with under 50%; and `O=C1Nc2ccc(C(=O)Nc3cc(F)c(F)c(F)c3)cc2S(=O)(=O)N1` [Example E75, 3-oxo-N-(3,4,5-trifluorophenyl)-3,4-dihydro-2H-benzo[e][1,2,4]thiadiazine-7-carboxamide 1,1-dioxide], with under 50%; and `CN1C(=O)Nc2ccc(C(=O)Nc3cc(F)c(F)c(F)c3)cc2S1(=O)=O` [Example E76, 2-methyl-3-oxo-N-(3,4,5-trifluorophenyl)-3,4-dihydro-2H-benzo[e][1,2,4]thiadiazine-7-carboxamide 1,1-dioxide], with over 50%.
Turning to `O=C(Nc1cc(F)c(F)c(F)c1)c1ccc2c(c1)S(=O)(=O)N(C1CC1)C(=O)N2` [Example E79, 2-cyclopropyl-3-oxo-N-(3,4,5-trifluorophenyl)-3,4-dihydro-2H-benzo[e][1,2,4]thiadiazine-7-carboxamide 1,1-dioxide], the inhibition at 1 µM was under 50%.
On the same count and under the same terms, the result for `O=C(Nc1cc(F)c(F)c(F)c1)c1ccc2c(c1)S(=O)(=O)N([C@H]1CC[C@H](O)CC1)C(=O)N2` [Example E80, trans-2-(4-hydroxycyclohexyl)-3-oxo-N-(3,4,5-trifluorophenyl)-3,4-dihydro-2H-benzo[e][1,2,4]thiadiazine-7-carboxamide 1,1-dioxide] reads over 50%.
The same measure, in the same setting: then `O=C(Nc1cc(F)c(F)c(F)c1)c1ccc2c(c1)S(=O)(=O)N(C1CCNCC1)C(=O)N2` [Example E81, 3-oxo-2-(piperidin-4-yl)-N-(3,4,5-trifluorophenyl)-3,4-dihydro-2H-benzo[e][1,2,4]thiadiazine-7-carboxamide 1,1-dioxide], with over 50%; and `Cc1cc(C(=O)Nc2cc(F)c(F)c(F)c2)cc2c1NC(c1nccs1)NS2(=O)=O` (stereo not drawn) [Example E89, 5-methyl-3-(thiazol-2-yl)-N-(3,4,5-trifluorophenyl)-3,4-dihydro-2H-benzo[e][1,2,4]thiadiazine-7-carboxamide 1,1-dioxide], with over 50%; and `N#Cc1cc(NC(=O)c2ccc3c(c2)S(=O)(=O)NC=N3)ccc1F` [Example E90, N-(3-cyano-4-fluorophenyl)-2H-benzo[e][1,2,4]thiadiazine-7-carboxamide 1,1-dioxide], with under 50%.
`N#Cc1cc(NC(=O)c2ccc3c(c2)S(=O)(=O)NCN3)ccc1F` [Example E91, N-(3-cyano-4-fluorophenyl)-3,4-dihydro-2H-benzo[e][1,2,4]thiadiazine-7-carboxamide 1,1-dioxide]: the inhibition at 1 µM is under 50%.
The same measure, in the same setting: then `O=C(Nc1cc(F)c(F)c(F)c1)c1ccc2c(c1)S(=O)(=O)N1CCCCC1CN2` (stereo not drawn) [Example E101, N-(3,4,5-trifluorophenyl)-1,3,4,11,12,12a-hexahydro-2H-benzo[f]pyrido[1,2-b][1,2,5]thiadiazepine-8-carboxamide 6,6-dioxide], with over 50%.
Same read-out and setting: the result for `CN1CC2CCCCN2S(=O)(=O)c2cc(C(=O)Nc3cc(F)c(F)c(F)c3)ccc21` (stereo not drawn) [Example E102, 11-methyl-N-(3,4,5-trifluorophenyl)-1,3,4,11,12,12a-hexahydro-2H-benzo[f]pyrido[1,2-b][1,2,5]thiadiazepine-8-carboxamide 6,6-dioxide] reads under 50%; that for `O=C(Nc1cc(F)c(F)c(F)c1)c1ccc2c(c1)S(=O)(=O)N1CCCC[C@H]1CN2` [Example E103, (S)-N-(3,4,5-trifluorophenyl)-1,3,4,11,12,12a-hexahydro-2H-benzo[f]pyrido[1,2-b][1,2,5]thiadiazepine-8-carboxamide 6,6-dioxide], under 50%; that for `O=C(Nc1cc(F)c(F)c(F)c1)c1ccc2c(c1)S(=O)(=O)N1CCCC[C@@H]1CN2` [Example E104, (R)-N-(3,4,5-trifluorophenyl)-1,3,4,11,12,12a-hexahydro-2H-benzo[f]pyrido[1,2-b][1,2,5]thiadiazepine-8-carboxamide 6,6-dioxide], over 50%.
For `O=C(Nc1cc(F)c(F)c(F)c1)c1ccc2c(c1)S(=O)(=O)N1CC[C@@H](C1)N2` [Example E105, (5S)-N-(3,4,5-trifluorophenyl)-3,4,5,6-tetrahydro-2,5-methanobenzo[g][1,2,6]thiadiazocine-9-carboxamide 1,1-dioxide], the inhibition at 1 µM is under 50%.
`O=C(Nc1cc(F)c(F)c(F)c1)c1ccc2c(c1)S(=O)(=O)N1CCCC1CN2` (stereo not drawn) [Example E106, N-(3,4,5-trifluorophenyl)-1,2,3,10,11,11a-hexahydrobenzo[f]pyrrolo[1,2-b][1,2,5]thiadiazepine-7-carboxamide 5,5-dioxide]: the inhibition at 1 µM is under 50%.
For the compound `O=C(Nc1cc(F)c(F)c(F)c1)c1ccc2c(c1)S(=O)(=O)N1CCC1CN2` (stereo not drawn) [Example E107, N-(3,4,5-trifluorophenyl)-1,9,10,10a-tetrahydro-2H-azeto[1,2-b]benzo[f][1,2,5]thiadiazepine-6-carboxamide 4,4-dioxide], the inhibition at 1 µM is under 50%.
